Measured values published in patent US9452986B2, “6-heteroaryloxy- or 6-aryloxy-quinoline-2-carboxamides and method of use” (AbbVie Inc., priority 2014, dated 2016).

These molecules were tested against recombinant human Nav1.7 (Homo sapiens (Human), UniProt Q15858) (assay: FRET-based membrane potential assay, recombinant human sodium channel Nav1.7). Conditions: HEK293 cells stably expressing recombinant human Nav1.7; veratridine + scorpion venom depolarization; read-out: FRET-Membrane Potential Nav1.7 IC50.
recombinant human Nav1.7, sequence (Q15858 whole entry): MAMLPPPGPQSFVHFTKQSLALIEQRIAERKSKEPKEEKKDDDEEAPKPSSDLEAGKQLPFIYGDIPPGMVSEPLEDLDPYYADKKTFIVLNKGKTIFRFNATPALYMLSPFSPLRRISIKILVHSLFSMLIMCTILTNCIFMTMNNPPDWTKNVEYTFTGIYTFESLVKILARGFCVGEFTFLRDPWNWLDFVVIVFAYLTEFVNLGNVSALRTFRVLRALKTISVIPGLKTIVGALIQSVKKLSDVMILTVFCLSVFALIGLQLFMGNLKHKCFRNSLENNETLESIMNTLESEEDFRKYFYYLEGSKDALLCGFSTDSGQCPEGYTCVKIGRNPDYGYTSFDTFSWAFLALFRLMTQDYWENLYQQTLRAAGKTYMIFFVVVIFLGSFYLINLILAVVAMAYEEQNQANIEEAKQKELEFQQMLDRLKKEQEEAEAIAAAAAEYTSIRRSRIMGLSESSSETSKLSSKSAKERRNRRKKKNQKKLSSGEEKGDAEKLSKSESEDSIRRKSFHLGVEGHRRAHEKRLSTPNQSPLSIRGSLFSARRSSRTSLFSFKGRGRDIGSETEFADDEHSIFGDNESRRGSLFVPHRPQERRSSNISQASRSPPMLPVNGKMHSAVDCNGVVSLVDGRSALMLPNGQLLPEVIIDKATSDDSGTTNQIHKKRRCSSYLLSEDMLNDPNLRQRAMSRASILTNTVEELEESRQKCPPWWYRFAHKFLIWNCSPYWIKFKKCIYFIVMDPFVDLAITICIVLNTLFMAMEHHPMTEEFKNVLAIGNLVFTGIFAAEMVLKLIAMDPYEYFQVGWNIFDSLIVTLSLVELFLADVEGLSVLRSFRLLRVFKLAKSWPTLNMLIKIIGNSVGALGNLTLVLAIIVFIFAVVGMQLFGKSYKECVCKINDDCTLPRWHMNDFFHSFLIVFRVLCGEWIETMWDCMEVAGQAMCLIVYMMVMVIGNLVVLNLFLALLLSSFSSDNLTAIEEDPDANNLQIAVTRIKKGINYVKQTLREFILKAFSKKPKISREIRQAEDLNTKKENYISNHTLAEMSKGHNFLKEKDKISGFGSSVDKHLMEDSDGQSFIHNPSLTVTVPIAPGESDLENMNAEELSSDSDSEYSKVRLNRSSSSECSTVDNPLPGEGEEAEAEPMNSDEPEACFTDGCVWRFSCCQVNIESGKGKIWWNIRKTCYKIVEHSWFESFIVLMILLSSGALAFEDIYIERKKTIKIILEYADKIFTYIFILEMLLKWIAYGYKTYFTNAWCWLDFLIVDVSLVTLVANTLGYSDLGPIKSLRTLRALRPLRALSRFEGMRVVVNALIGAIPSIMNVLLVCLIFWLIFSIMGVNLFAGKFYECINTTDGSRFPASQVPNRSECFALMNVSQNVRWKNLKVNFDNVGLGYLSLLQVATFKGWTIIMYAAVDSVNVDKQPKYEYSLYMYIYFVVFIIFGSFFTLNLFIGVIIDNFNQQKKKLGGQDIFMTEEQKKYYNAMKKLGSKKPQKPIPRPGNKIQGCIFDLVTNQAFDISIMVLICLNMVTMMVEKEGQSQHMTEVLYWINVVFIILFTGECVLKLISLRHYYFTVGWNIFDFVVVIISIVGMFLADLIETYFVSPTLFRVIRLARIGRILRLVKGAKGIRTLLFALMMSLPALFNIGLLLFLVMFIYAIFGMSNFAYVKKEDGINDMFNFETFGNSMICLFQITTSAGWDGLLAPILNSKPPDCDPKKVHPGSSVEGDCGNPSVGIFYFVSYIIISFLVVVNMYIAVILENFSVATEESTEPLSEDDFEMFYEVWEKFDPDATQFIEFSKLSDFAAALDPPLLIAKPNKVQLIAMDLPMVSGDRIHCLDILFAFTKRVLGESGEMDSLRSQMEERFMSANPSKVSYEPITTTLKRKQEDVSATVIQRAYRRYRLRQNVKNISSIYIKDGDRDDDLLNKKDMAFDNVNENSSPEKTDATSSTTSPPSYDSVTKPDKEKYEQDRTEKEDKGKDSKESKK
Type: cell-based
Outline: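 Channel activation used veratridine at its EC80, set by a dilution curve each experiment, together with Leiurus scorpion venom, added 3 min after compound. Membrane-potential ratio signals from FLIPR Tetra in HEPES-buffered HBSS were fitted to a four-parameter Hill equation for percent inhibition and IC50.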
`O=C(c1ccc2cc(Oc3ccc(C(F)(F)F)cn3)ccc2n1)N1CCC2(CC(O)C2)C1` (stereo not shown) [Example 345, (2-hydroxy-6-azaspiro[3.4]oct-6-yl)(6-{[5-(trifluoromethyl)pyridin-2-yl]oxy}quinolin-2-yl)methanone] was tested, and the IC50 was 9.15 µM.
In the case of `O=C(NCCF)c1ccc2cc(Oc3ccc(C(F)(F)F)cn3)ccc2n1` [Example 346, N-(2-fluoroethyl)-6-{[5-(trifluoromethyl)pyridin-2-yl]oxy}quinoline-2-carboxamide], the IC50 is reported as 2.5 µM.
Work on `O=C(NCC(F)F)c1ccc2cc(Oc3ccc(C(F)(F)F)cn3)ccc2n1` [Example 347, N-(2,2-difluoroethyl)-6-{[5-(trifluoromethyl)pyridin-2-yl]oxy}quinoline-2-carboxamide] yielded an IC50 of 2.63 µM.
With `CS[C@H]1CN(C(=O)c2ccc3cc(Oc4ccc(C(F)(F)F)cn4)ccc3n2)C[C@@H]1O` [Example 348, [(3S,4S)-3-hydroxy-4-(methylsulfanyl)pyrrolidin-1-yl](6-{[5-(trifluoromethyl)pyridin-2-yl]oxy}quinolin-2-yl)methanone] the IC50 was 3.9 µM.
`O=C(NC1CCCS(=O)(=O)C1)c1ccc2cc(Oc3ccc(C(F)(F)F)cn3)ccc2n1` (stereo not shown) [Example 349, N-(1,1-dioxidotetrahydro-2H-thiopyran-3-yl)-6-{[5-(trifluoromethyl)pyridin-2-yl]oxy}quinoline-2-carboxamide] was tested, and the IC50 was 3.25 µM.
Work on `O=C(c1ccc2cc(Oc3ccc(C(F)(F)F)cn3)ccc2n1)N1CCC2(CC1)CC(O)C2` [Example 354, (2-hydroxy-7-azaspiro[3.5]non-7-yl)(6-{[5-(trifluoromethyl)pyridin-2-yl]oxy}quinolin-2-yl)methanone] yielded an IC50 of 12.4 µM.
`O=C(NCCC(F)(F)F)c1ccc2cc(Oc3ccc(C(F)(F)F)cn3)ccc2n1` [Example 355, 6-{[5-(trifluoromethyl)pyridin-2-yl]oxy}-N-(3,3,3-trifluoropropyl)quinoline-2-carboxamide] showed an IC50 of 1.27 µM.
`C[C@@H]1CN2C[C@@H](F)C[C@@H]2CN1C(=O)c1ccc2cc(Oc3ccc(C(F)(F)F)cn3)ccc2n1` [Example 357, [(3R,7S,8aR)-7-fluoro-3-methylhexahydropyrrolo[1,2-a]pyrazin-2(1H)-yl](6-{[5-(trifluoromethyl)pyridin-2-yl]oxy}quinolin-2-yl)methanone] gave an IC50 of 2.72 µM.
Work on `C[C@@H]1CN2CC(F)(F)C[C@@H]2CN1C(=O)c1ccc2cc(Oc3ccc(C(F)(F)F)cn3)ccc2n1` [Example 358, [(3R,8aR)-7,7-difluoro-3-methylhexahydropyrrolo[1,2-a]pyrazin-2(1H)-yl](6-{[5-(trifluoromethyl)pyridin-2-yl]oxy}quinolin-2-yl)methanone] yielded an IC50 of 1.31 µM.
For `O=C(NCC1COCCN1Cc1ccccc1)c1ccc2cc(Oc3ccc(C(F)(F)F)cn3)ccc2n1` (stereo not shown) [Example 361, N-[(4-benzylmorpholin-3-yl)methyl]-6-{[5-(trifluoromethyl)pyridin-2-yl]oxy}quinoline-2-carboxamide], the IC50 was 2.88 µM.
Molecule `O=C(NCC1(O)CCOCC1)c1ccc2cc(Oc3ccc(C(F)(F)F)cn3)ccc2n1` [Example 362, N-[(4-hydroxytetrahydro-2H-pyran-4-yl)methyl]-6-{[5-(trifluoromethyl)pyridin-2-yl]oxy}quinoline-2-carboxamide] has an IC50 of 1 µM.
`O=C(NC[C@@H]1CCCN1)c1ccc2cc(Oc3ccc(C(F)(F)F)cn3)ccc2n1` [Example 363, N-[(2S)-pyrrolidin-2-ylmethyl]-6-{[5-(trifluoromethyl)pyridin-2-yl]oxy}quinoline-2-carboxamide] gave an IC50 of 1.19 µM.
`CC1(C)CN(CCNC(=O)c2ccc3cc(Oc4ccc(C(F)(F)F)cn4)ccc3n2)C1` [Example 364, N-[2-(3,3-dimethylazetidin-1-yl)ethyl]-6-{[5-(trifluoromethyl)pyridin-2-yl]oxy}quinoline-2-carboxamide] was tested, and the IC50 was 0.37 µM.
`O=C(NCCN1CCSCC1)c1ccc2cc(Oc3ccc(C(F)(F)F)cn3)ccc2n1` [Example 365, N-[2-(thiomorpholin-4-yl)ethyl]-6-{[5-(trifluoromethyl)pyridin-2-yl]oxy}quinoline-2-carboxamide] was tested, and the IC50 was 0.356 µM.
In the case of `C=CCN(C)C(=O)c1ccc2cc(Oc3ccc(C(F)(F)F)cn3)ccc2n1` [Example 366, N-allyl-N-methyl-6-{[5-(trifluoromethyl)pyridin-2-yl]oxy}quinoline-2-carboxamide], the IC50 is reported as 3.18 µM.
`N#CC1CN(C(=O)c2ccc3cc(Oc4ccc(C(F)(F)F)cn4)ccc3n2)C1` [Example 367, 1-[(6-{[5-(trifluoromethyl)pyridin-2-yl]oxy}quinolin-2-yl)carbonyl]azetidine-3-carbonitrile] gave an IC50 of 2.53 µM.
`O=C(NCC1(O)CC1)c1ccc2cc(Oc3ccc(C(F)(F)F)cn3)ccc2n1` [Example 369, N-[(1-hydroxycyclopropyl)methyl]-6-{[5-(trifluoromethyl)pyridin-2-yl]oxy}quinoline-2-carboxamide] was tested, and the IC50 was 15.2 µM.
`O=C(NC1COCC1O)c1ccc2cc(Oc3ccc(C(F)(F)F)cn3)ccc2n1` (stereo not shown) [Example 371, N-(4-hydroxytetrahydrofuran-3-yl)-6-{[5-(trifluoromethyl)pyridin-2-yl]oxy}quinoline-2-carboxamide] was tested, and the IC50 was 1.46 µM.
With `N#Cc1cnc(Oc2ccc3nc(C(=O)N4CCNCC4)ccc3c2)cn1` [Example 372, 5-{[2-(piperazin-1-ylcarbonyl)quinolin-6-yl]oxy}pyrazine-2-carbonitrile] the IC50 was > 20 µM.
`O=C1CCN(C(=O)c2ccc3cc(Oc4ccc(C(F)(F)F)cn4)ccc3n2)CC1` [Example 375, 1-[(6-{[5-(trifluoromethyl)pyridin-2-yl]oxy}quinolin-2-yl)carbonyl]piperidin-4-one] gave an IC50 of 13.2 µM.
`O=C(c1ccc2cc(Oc3ccc(C(F)(F)F)cn3)ccc2n1)N(C1CCOCC1)C1CCOCC1` [Example 376, N,N-di(tetrahydro-2H-pyran-4-yl)-6-{[5-(trifluoromethyl)pyridin-2-yl]oxy}quinoline-2-carboxamide] showed an IC50 of 3.06 µM.
In the case of `O=C(c1ccc2cc(Oc3ccc(C(F)(F)F)cn3)ccc2n1)N1CCC(N2C[C@@H]3C[C@H]2CO3)CC1` [Example 377, {4-[(1S,4S)-2-oxa-5-azabicyclo[2.2.1]hept-5-yl]piperidin-1-yl}(6-{[5-(trifluoromethyl)pyridin-2-yl]oxy}quinolin-2-yl)methanone], the IC50 is reported as 3.32 µM.
In the case of `O=C(c1ccc2cc(Oc3ccc(C(F)(F)F)cn3)ccc2n1)N1CCC(N2C[C@H]3C[C@@H]2CO3)CC1` [Example 378, {4-[(1R,4R)-2-oxa-5-azabicyclo[2.2.1]hept-5-yl]piperidin-1-yl}(6-{[5-(trifluoromethyl)pyridin-2-yl]oxy}quinolin-2-yl)methanone], the IC50 is reported as 2.23 µM.
`COCCN(CCOC)C(=O)c1ccc2cc(Oc3ccc(C(F)(F)F)cn3)ccc2n1` [Example 379, N,N-bis(2-methoxyethyl)-6-{[5-(trifluoromethyl)pyridin-2-yl]oxy}quinoline-2-carboxamide] gave an IC50 of 3.39 µM.
In the case of `O=C(NC1(CO)CC1)c1ccc2cc(Oc3ccc(C(F)(F)F)cn3)ccc2n1` [Example 380, N-[1-(hydroxymethyl)cyclopropyl]-6-{[5-(trifluoromethyl)pyridin-2-yl]oxy}quinoline-2-carboxamide], the IC50 is reported as 3 µM.
`O=C(c1ccc2cc(Oc3ccc(C(F)(F)F)cn3)ccc2n1)N1CCN(S(=O)(=O)C2CCOC2)CC1` (stereo not shown) [Example 381, [4-(tetrahydrofuran-3-ylsulfonyl)piperazin-1-yl](6-{[5-(trifluoromethyl)pyridin-2-yl]oxy}quinolin-2-yl)methanone] showed an IC50 of 3.41 µM.
Molecule `COC(=O)CS(=O)(=O)N1CCN(C(=O)c2ccc3cc(Oc4ccc(C(F)(F)F)cn4)ccc3n2)CC1` [Example 382, methyl ({4-[(6-{[5-(trifluoromethyl)pyridin-2-yl]oxy}quinolin-2-yl)carbonyl]piperazin-1-yl}sulfonyl)acetate] has an IC50 of 1.82 µM.
`O=C(c1ccc2cc(Oc3ccc(C(F)(F)F)cn3)ccc2n1)N1CCN(S(=O)(=O)C2CCOCC2)CC1` [Example 383, [4-(tetrahydro-2H-pyran-4-ylsulfonyl)piperazin-1-yl](6-{[5-(trifluoromethyl)pyridin-2-yl]oxy}quinolin-2-yl)methanone] was tested, and the IC50 was > 20 µM.

Same assay, conditions: read-out: FRET-Membrane Potential Nav1.7 IC50
With `O=C(c1ccc2cc(Oc3ccc(C(F)(F)F)cn3)ccc2n1)N1CCC2(C1)OCCO2` [Example 352, 1,4-dioxa-7-azaspiro[4.4]non-7-yl(6-{[5-(trifluoromethyl)pyridin-2-yl]oxy}quinolin-2-yl)methanone] the IC50 was 3.28 µM.
`CON=C1CCN(C(=O)c2ccc3cc(Oc4ccc(C(F)(F)F)cn4)ccc3n2)CC1` [Example 353, [4-(methoxyimino)piperidin-1-yl](6-{[5-(trifluoromethyl)pyridin-2-yl]oxy}quinolin-2-yl)methanone] showed an IC50 of 3.63 µM.
Work on `O=C(c1ccc2cc(Oc3ccc(C(F)(F)F)cn3)ccc2n1)N1CCN2C[C@@H](F)C[C@@H]2C1` [Example 356, [(7S,8aR)-7-fluorohexahydropyrrolo[1,2-a]pyrazin-2(1H)-yl](6-{[5-(trifluoromethyl)pyridin-2-yl]oxy}quinolin-2-yl)methanone] yielded an IC50 of 3.36 µM.
`O=C(c1ccc2cc(Oc3ccc(C(F)(F)F)cn3)ccc2n1)N1CCN2C[C@@H](F)C[C@H]2C1` [Example 359, [(7S,8aS)-7-fluorohexahydropyrrolo[1,2-a]pyrazin-2(1H)-yl](6-{[5-(trifluoromethyl)pyridin-2-yl]oxy}quinolin-2-yl)methanone] showed an IC50 of 4.71 µM.
`O=C(c1ccc2cc(Oc3ccc(C(F)(F)F)cn3)ccc2n1)N1CCc2[nH]cnc2C1` [Example 360, 1,4,6,7-tetrahydro-5H-imidazo[4,5-c]pyridin-5-yl(6-{[5-(trifluoromethyl)pyridin-2-yl]oxy}quinolin-2-yl)methanone] gave an IC50 of 1.09 µM.
In the case of `O=C1CN(C(=O)c2ccc3cc(Oc4ccc(C(F)(F)F)cn4)ccc3n2)C1` [Example 370, 1-[(6-{[5-(trifluoromethyl)pyridin-2-yl]oxy}quinolin-2-yl)carbonyl]azetidin-3-one], the IC50 is reported as 3.39 µM.
